From article PMC11480993, “Combining Data-Driven and Structure-Based Approaches in Designing Dual PARP1-BRD4 Inhibitors for Breast Cancer Treatment” (Journal of Chemical Information and Modeling, 2024)

Key:
BRD3 = BRD3 (Homo sapiens, UniProt Q15059); assay: BRD TR-FRET assay, BRD3; assay type: binding
Method: (§1) The assay was performed by TR-FRET technology using a BRD and its corresponding ligand (BET). The TR-FRET signal from the assay is correlated with the amount of ligand binding to the bromodomain. All of the binding reactions were conducted at room temperature. The 20 μL reaction mixture in Assay Buffer contains either bromodomains, BET Ligand, and the indicated amount of inhibitor. For the negative control (blank), 5 μL of the assay buffer was added instead of the BET ligand. The reaction mixture was incubated for 120 min. After the incubation with the ligand, the TR-FRET signal was measured using a Tecan Infinite M1000 plate reader.

[1] = test system: L02 (normal human liver cell); assay: Cytotoxicity against non-tumor cells, L02; assay type: cell-based; conditions: 96 h, 4-day treatment
Source text: To further establish HF4’s advantage, we employed a web-based in silico cytotoxicity prediction tool (https://www.way2drug.com/clc-pred/index.php), encompassing the prediction against 391 tumor and 47 normal human cell lines,[47] to predict the cytotoxicity of HF4 against nontumor cell lines. […] The absence of nontumor cell lines among the top-ranked ones indicates a limited impact on normal cell line. When threshold of ≥0.15 was applied, among 50 predictions, only a single normal cell line (HEK293) was present in the list, with a predicted probability value below 0.2. We further reinforced the safety profile of HF4 by conducting experimental safety assessments on two normal cell lines. […] In summary, we conducted both computational safety predictions and experimental evaluations on normal cell lines to strengthen the assurance of HF4’s safety profile.
Cytotoxicity of HF4 against non-tumor cells
Figure S6. Cytotoxicity of HF4 against non-tumor cells during a 4-day treatment.
(1 picture or pasted object on this page, not shown here)

MCF-7 cells [2] = assay: Colony formation assay; assay type: cell-based; conditions: seven-day exposure
Method: The cells were placed in a 6-well plate at a density of approximately 500 cells per well and allowed to incubate for 24 h. Subsequently, the cells were exposed to the specified concentrations of test compounds and a control vehicle for a duration of 7 days. Following this treatment period, the cells were fixed using a 4% formaldehyde solution, stained with crystal violet, and then imaged.

BRD1 = BRD1 (Homo sapiens, UniProt O95696); assay: BRD TR-FRET assay, BRD1; assay type: binding
BRD1, sequence (O95696 whole entry): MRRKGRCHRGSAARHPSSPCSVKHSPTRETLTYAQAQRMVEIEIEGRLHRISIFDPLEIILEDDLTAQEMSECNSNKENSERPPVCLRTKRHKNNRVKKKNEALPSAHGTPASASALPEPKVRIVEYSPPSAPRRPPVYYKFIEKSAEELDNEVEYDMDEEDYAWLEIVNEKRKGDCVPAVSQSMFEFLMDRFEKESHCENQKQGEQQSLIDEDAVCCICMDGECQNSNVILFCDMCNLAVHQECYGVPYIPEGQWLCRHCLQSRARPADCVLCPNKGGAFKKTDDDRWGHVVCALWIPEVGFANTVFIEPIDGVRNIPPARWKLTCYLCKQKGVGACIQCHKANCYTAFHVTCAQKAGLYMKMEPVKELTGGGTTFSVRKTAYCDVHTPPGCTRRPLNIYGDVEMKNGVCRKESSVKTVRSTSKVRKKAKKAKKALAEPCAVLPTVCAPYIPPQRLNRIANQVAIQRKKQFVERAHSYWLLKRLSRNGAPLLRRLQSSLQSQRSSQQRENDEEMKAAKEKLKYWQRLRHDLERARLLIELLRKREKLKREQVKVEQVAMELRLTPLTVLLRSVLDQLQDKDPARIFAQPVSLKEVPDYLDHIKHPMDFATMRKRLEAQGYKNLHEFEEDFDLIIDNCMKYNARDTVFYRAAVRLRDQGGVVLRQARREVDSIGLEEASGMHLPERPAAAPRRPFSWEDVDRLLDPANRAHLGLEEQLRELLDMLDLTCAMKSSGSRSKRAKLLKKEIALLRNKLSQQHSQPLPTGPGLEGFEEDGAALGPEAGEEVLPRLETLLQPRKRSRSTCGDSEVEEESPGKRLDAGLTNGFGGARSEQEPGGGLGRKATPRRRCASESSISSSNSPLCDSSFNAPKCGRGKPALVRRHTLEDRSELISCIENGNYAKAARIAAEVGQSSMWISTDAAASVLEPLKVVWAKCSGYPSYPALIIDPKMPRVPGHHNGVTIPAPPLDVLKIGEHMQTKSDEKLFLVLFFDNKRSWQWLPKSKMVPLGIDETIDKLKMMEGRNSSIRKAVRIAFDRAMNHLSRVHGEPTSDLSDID
Method: as §1

MCF-7 cells [3] = assay: Cell viability (MTT), MCF-7; assay type: cell-based; conditions: Homo sapiens, MCF7, 96 h; 4-day treatment, wild-type BRCA
Method: MDA-MB-231, MDA-MB-436, and MCF-7 cells were seeded into 96-well plates with the number of 5 × 10^3 in each cell and allowed to incubate for 24 h. Subsequently, various concentrations of the test compounds (ranging from 100 to 0.78 μM with twice gradient dilution) were introduced. After 4 days of incubation, MTT solution was applied, and the cells were incubated for an additional 4 h. Following the removal of the supernatant, the violet crystals were dissolved in 200 μL of DMSO, and the absorbance was measured at 570 nm.

MCF-7 cells [4] = assay: Alkaline comet assay; assay type: cell-based; conditions: 4 and 8 μM, 48 h, MCF-7, compared to control
Method: The Alkaline comet assay was executed in accordance with the manufacturer’s instructions. Following a 48 h treatment period, cells were harvested and combined with low melting point agarose. The resulting mixture was layered onto slides coated with agarose as a normal melting point agarose. Subsequently, the cells on the slides were lysed overnight at 4 °C and then unwound in an alkaline unwinding solution for 30 min at room temperature. Following electrophoresis, the samples were neutralized and stained with propidium iodide. The outcomes were visualized using a confocal microscope (Nikon A1 HD25), with three random images captured from each slide.

E2F2 = assay: Western blot, E2F2 in MCF-7 cells; assay type: cell-based; conditions: MCF-7, 48 h
Method: Following a 48 h treatment, cellular proteins were extracted using RIPA cell lysis buffer containing protease and phosphatase inhibitor cocktail. The protein concentration was assessed by using a BCA assay. Subsequently, equal amounts of these proteins were loaded onto an SDS-PAGE gel and transferred onto a PVDF membrane. The protein-loaded membrane was then blocked using a commercial blocking solution (Beyotime, China) and sequentially incubated with primary and secondary antibodies. Protein bands were visualized using an ECL chemiluminescence kit and quantified using ImageJ software.

BRD3, sequence (Q15059 whole entry): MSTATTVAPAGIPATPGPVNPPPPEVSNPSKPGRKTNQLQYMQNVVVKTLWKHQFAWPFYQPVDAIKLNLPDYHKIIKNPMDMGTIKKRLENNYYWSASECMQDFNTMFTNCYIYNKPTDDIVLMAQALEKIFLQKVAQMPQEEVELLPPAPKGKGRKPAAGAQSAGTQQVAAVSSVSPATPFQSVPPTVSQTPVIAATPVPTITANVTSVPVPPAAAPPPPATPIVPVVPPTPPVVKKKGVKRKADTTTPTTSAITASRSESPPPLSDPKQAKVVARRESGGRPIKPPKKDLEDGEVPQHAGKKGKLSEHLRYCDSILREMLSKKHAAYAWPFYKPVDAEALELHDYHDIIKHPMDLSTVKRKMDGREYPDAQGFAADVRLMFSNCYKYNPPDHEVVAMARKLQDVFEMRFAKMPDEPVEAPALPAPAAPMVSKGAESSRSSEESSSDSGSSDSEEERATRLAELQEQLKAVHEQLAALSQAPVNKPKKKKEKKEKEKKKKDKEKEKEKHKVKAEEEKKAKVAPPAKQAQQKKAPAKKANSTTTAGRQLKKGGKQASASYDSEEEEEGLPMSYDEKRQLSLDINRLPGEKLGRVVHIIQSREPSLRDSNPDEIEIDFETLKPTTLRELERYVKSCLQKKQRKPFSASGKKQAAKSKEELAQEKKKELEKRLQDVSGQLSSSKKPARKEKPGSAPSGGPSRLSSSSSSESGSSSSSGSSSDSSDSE

CCc1cc2cc(NS(=O)(=O)c3ccc(F)c(C)c3)ccc2[nH]c1=O [HF4, N-(3-ethyl-2-oxo-1,2-dihydroquinolin-6-yl)-4-fluoro-3-methylbenzenesulfonamide]
IC50 (BRD3): 4.79 ± 1.36 µM | IC50 [1]: 26.3 ± 6.2 µM | colony formation (MCF-7 cells [2]; 2 μM): marked decline in colony formation | colony formation (MCF-7 cells [2]; 8 μM): nearly no visible colonies | IC50 (BRD1): 55.6 ± 13.9 µM | IC50 (MCF-7 cells [3]): 2.1 µM | DNA damage (comet tail length, percentage of damaged DNA) (MCF-7 cells [4]): increase in both tail length and the percentage of damaged DNA | E2F2 expression (E2F2): suppressed
